Test results published in patent publication US9387231B2, “Compositions comprising a Brd4 antagonist and methods for the treatment of HIV” (THE CHILDREN'S HOSPITAL OF PHILADELPHIA, priority 2011, dated 2016).
Entries after “also recorded” stand apart in the source; their conditions may differ.

Tests used:
Assay type in all cases: cell-based
[1] = test system: HIV-1 LTR promoter; test: Activation of the HIV LTR in CEMss LTR-GFP reporter cells (GFP by flow cytometry)
Protocol: CEMss LTR-GFP cells were infected with NL43 and cultured in the presence of the BET antagonists JQ1(+) (1 μM) or the control enantiomer JQ1(−). GFP expression in cells was examined by flow cytometry. A representative of three experiments is shown. FIG. 2B provides a graph showing GFP expression in cells when cultured with different amounts of JQ1, as determined by flow cytometry. 0.25 μM of JQ1(+) was sufficient to dramatically increase the expression of GFP in NL43 infected CEMss LTR-GFP cells. FIGS. 2C and 2D show percentage of GFP expression (FIG. 2C) and mean fluorescence of GFP (MFI; FIG. 2D) in CEMss LTR-GFP cells cultured in the presence of JQ1(+) or JQ1(−) (1 μM), and different amount of HIV-1 Tat. FIG. 2E provides dot plots of CEMss LTR-GFP cells were cultured with increasing amounts of HIV Tat (0, 8, 16 or 32 μg/ml) in the presence of JQ1(+) or JQ1(−) (1 μM) for 1 day. Non-underlined numbers indicate percentage of GFP and underlined numbers indicate mean fluorescence of GFP (MFI).
GFP expression was measured by flow cytometry. FIGS. 3B and 3C shown the percentage of cells positive for GFP (FIG. 3B) and the mean MFI of GFP (FIG. 3C) in latently infected cell lines, J-Lat clones 82, A72, A7, A2, and A1, at 16 hours after TNFα or PHA was added in the cultures in the presence of JQ1(+) or JQ1(−). […] GFP expression in cells was measured by flow cytometry and is indicated as percent of GFP+ cells in gated live cell populations. An average of 5 experiments is shown. * p<0.05, ** p<0.01, *** p<0.001. […] Average of 3 experiments is shown. * p<0.05. For FIG. 3F, J-Lat A2 and A72 cells were reactivated with TNFα (20 ng/ml) or HIV Tat protein (50 μg/ml) in the presence of JQ1(+) or JQ1(−) for 16-18 hours, and GFP expression in cells was measured by flow cytometry. One representative experiment is shown. In each dot plot, non-underlined numbers indicate percentage of GFP+ cells and underlined numbers indicate mean fluorescence of GFP (MFI).
BET antagonists also drive activation of the HIV LTR. Specifically, the effects of JQ1 on transcription from the HIV LTR were tested. CEMss LTR-GFP cells (a reporter cell line stably transfected with GFP under the control of the HIV-1 LTR promoter) were infected with NL43 and cultured in the presence of BET antagonists or controls. GFP expression was measured at days 0, 1, 2, 3, and 6 post-infection. GFP expression was higher in the presence of the BET inhibitor (JQ1) compared to controls (FIG. 2A). Further, by varying the amount of JQ1, it was determined that 0.25 μM of JQ1(+) was sufficient to dramatically increase Tat-driven HIV-1 transcription (FIG. 2B). CEMss LTR-GFP cells were also cultured in the presence of JQ1(+) or JQ1(−) (1 μM) and different amount of HIV-1 Tat (0-32 μg/ml). […] FIG. 2E provides dot plots of the experiments.
Next, the effect of JQ1 on activation of the HIV LTR was tested using a latently infected Jurkat-derived cell clone, J-Lat clone A2. GFP expression in J-Lat clone A2 is induced upon reactivation with tumor necrosis factor-alpha (TNFα) or phytohaemagglutinin (PHA).

[2] = test system: HIV-1 NL43, SG3 or SG3deltaVif; test: Reactivation in latently infected primary resting CD4 T-cells (p24 ELISA)
Protocol: A representative of three experiments is shown. […] AZT (100 μM) was added at day 1 after infection to prevent the spreading infection. The level of p24 in the media was measured by ELISA at day 3 (d3) and day 5 (d5) post-infection. The data shown are summarized for triplicate samples.
For FIG. 5A, primary resting CD4 T-cells were purified and spinoculated with HIV-1 NL43 or mock control. The infected cells were then cultured in the presence of 1 μM of JQ1(+) or JQ1(−). At day 3 after infection, IL-7 (20 ng/ml) was added in some of the cultures. Cells were counted and cell supernatants were collected at day 5 after infection. For FIG. 5B, primary CD4 T-cells were spinoculated with SG3 or SG3deltaVif and cultured in the presence of 1 μM of JQ1(+) or JQ1(−). AZT (100 μM) was added at day 1 after infection to prevent the spreading infection. IL7 (20 ng/ml) was added in some culture at day 3 after infection and the level of p24 in the media was measured by ELISA at day 3 and day 5 post-infection. The data shown are summarized with triplicates.

[3] = test system: Cdk9 binding to the HIV LTR; test: Chromatin immunoprecipitation (ChIP) of HIV LTR DNA, Cdk9; conditions: CEMss LTR-GFP cells infected with HIV NL4-3, days 3 to 5, compared to JQ1(−), p<0.001
Protocol: FIGS. 7A and 7B show the fold increase in the binding of IgG, RNA polymerase II, or Cdk9 to the HIV LTR in the presence of JQ1(+) or JQ1(−) for early (FIG. 7A) and late (FIG. 7B) HIV-1 transcript. ***p<0.001.
To further investigate the mechanism of JQ1(+) reactivation of HIV transcription in latently infected T-cells, the binding of RNA polymerase II (PoI II) and p-TEFb (Cdk9/Cyclin T) to the promoter region of HIV LTR was measured using chromatin immunoprecipitation (ChIP). A CEMss reporter cell line stably transfected with GFP under the control of the HIV LTR promoter was used. CEMss LTR-GFP cells were infected with HIV NL4-3 in the presence of JQ1(+) or JQ1(−). At days 3 to 5 of infection, cells were collected and sheared, and formaldehyde cross-linked chromatin extracts were immunoprecipitated with antibodies specific for IgG, RNA polymerase II, or Cdk9. The abundance of HIV LTR DNA in immunoprecipitates was assessed by qPCR with two sets of primers specific for early or late regions of the HIV LTR.

## Cc1sc2c(c1C)C(c1ccc(Cl)cc1)=N[C@@H](CC(=O)OC(C)(C)C)c1nnc(C)n1-2 [JQ1(+), tert-butyl 2-((6S)-4-(4-chlorophenyl)-2,3,9-trimethyl-6H-thieno[3,2-f][1,2,4]triazolo[4,3-a][1,4]diazepin-6-yl)acetate]
[1]; CEMss LTR-GFP cells infected with NL43, 1 μM, compared to controls, days 0-6
  GFP expression: higher
[1]; CEMss LTR-GFP cells, 20 ng/ml TNFα, 1 μM, 1 day, absence of Tat
  TNFα-induced activation of the HIV LTR: promotes
[1]; CEMss LTR-GFP cells, 1 μM, with 8, 16 or 32 μg/ml HIV-1 Tat
  Mean fluorescence intensities (MFI) of GFP: dramatically enhanced
[1]; NL43 infected CEMss LTR-GFP cells
  Amount sufficient to dramatically increase Tat-driven HIV-1 transcription (GFP expression): 0.25 µM
[2]; latently infected primary resting CD4 T-cells, NL43, 1 μM
  Reactivation of the HIV LTR (p24 per million cells): drives the reactivation of the HIV LTR
[2]; wild-type SG3 latently infected primary CD4 T-cells, 1 μM, AZT 100 μM
  Reactivation of the HIV LTR (p24 in media): drives reactivation of the HIV LTR; also recorded: drives the reactivation of the HIV LTR
[3]
  Binding of Cdk9 to the HIV LTR: significantly increased
